Reference: ChEMBL document CHEMBL3784917, “Recent Progress in Histone Demethylase Inhibitors” (J Med Chem, 2016)
One block for each compound: values may come before it.

Tests used:
[1] = biological target: T1, Lysine-specific demethylase 4A (Homo sapiens, UniProt O75164)
T1 sequence (O75164 whole entry): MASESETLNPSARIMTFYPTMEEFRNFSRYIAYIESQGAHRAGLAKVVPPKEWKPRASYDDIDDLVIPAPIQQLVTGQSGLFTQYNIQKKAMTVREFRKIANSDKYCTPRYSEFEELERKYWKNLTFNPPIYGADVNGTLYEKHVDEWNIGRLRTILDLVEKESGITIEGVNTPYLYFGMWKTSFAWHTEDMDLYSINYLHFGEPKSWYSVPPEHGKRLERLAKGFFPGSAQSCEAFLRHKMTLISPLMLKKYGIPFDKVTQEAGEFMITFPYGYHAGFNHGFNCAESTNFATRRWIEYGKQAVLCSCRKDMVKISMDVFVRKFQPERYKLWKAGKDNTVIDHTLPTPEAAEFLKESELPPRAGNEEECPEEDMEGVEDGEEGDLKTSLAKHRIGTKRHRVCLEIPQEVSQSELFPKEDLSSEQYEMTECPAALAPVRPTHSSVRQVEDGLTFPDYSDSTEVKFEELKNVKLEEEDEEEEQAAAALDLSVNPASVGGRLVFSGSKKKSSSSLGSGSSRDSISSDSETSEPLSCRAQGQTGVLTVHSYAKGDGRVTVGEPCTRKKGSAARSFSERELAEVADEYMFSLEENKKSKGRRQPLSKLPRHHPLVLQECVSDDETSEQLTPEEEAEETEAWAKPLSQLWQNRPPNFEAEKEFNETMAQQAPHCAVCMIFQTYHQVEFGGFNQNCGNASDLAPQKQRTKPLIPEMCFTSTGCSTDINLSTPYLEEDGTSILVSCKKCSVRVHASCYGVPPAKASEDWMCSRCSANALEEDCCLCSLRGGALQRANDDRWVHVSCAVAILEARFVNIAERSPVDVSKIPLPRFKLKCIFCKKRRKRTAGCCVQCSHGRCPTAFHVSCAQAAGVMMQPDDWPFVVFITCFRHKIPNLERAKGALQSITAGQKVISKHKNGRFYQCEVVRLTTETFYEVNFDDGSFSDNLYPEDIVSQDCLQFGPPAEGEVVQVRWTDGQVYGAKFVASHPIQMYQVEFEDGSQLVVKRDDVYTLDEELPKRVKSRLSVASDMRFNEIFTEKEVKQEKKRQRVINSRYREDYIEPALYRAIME

[2] = biological target: Lysine-specific demethylase 6B (Homo sapiens, UniProt O15054); test: Inhibition of human C-terminal FLAG-tagged KDM6B (1043 residues) expressed in baculovirus infected sf9 cells using H3K27me3 (21 to 44 residues) substrate preincubated for 10 mins followed by substrate addition measured after 45 mins by TR-FRET assay
[3] = biological target: T1, Lysine-specific demethylase 4A; remark: listed apart in the source
[4] = biological target: T1, Lysine-specific demethylase 4A; remark: listed apart in the source
[5] = biological target: T2, Lysine-specific demethylase 5A (Homo sapiens, UniProt P29375); set-up: species or system Sf9
[6] = Growth inhibition of human MIAPaCa2 cells after 48 hrs by CellTiter-Glo assay; type: functional; details: MIA PaCa-2, 48 h
[7] = biological target: T1, Lysine-specific demethylase 4A; test: biochemical
[8] = biological target: T3, Lysine-specific demethylase 2A (Homo sapiens, UniProt Q9Y2K7); test: Competitive inhibition of recombinant His6-tagged KDM2A (1 to 517 residues) (unknown origin) expressed in Escherichia coli BL21 cells using methylstat as substrate preincubated for 30 mins followed by substrate addition measured after 4 hrs by fluorescence polarization assay
T3 sequence (Q9Y2K7 whole entry): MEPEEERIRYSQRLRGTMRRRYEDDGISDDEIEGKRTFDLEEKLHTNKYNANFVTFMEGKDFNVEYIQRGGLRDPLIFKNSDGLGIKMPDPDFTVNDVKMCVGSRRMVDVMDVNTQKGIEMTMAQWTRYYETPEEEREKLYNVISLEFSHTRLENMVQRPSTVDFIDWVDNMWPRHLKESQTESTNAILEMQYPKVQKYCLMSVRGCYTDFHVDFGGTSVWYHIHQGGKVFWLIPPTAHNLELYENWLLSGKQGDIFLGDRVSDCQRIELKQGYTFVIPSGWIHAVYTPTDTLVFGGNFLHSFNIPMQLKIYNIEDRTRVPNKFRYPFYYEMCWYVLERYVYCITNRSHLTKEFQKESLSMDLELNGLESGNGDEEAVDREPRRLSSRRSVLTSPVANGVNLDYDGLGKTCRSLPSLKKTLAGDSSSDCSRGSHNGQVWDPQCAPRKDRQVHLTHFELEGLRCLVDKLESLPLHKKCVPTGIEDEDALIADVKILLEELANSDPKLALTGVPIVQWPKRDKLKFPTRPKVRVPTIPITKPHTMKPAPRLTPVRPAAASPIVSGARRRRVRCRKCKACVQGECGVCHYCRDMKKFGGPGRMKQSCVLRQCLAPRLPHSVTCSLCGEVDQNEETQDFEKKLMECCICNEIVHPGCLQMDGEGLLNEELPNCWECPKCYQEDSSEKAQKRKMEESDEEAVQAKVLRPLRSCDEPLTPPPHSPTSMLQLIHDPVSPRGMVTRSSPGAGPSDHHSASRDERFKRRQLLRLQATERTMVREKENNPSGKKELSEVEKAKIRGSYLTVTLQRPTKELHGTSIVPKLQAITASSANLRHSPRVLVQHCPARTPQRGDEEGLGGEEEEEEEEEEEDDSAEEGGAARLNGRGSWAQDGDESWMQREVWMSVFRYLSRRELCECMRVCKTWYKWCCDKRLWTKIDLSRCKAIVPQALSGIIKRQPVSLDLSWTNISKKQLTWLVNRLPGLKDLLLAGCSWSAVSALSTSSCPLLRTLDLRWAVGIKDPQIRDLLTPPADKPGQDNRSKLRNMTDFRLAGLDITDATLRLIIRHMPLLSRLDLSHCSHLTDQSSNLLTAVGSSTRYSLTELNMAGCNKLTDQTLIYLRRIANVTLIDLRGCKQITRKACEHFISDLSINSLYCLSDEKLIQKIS

[9] = biological target: T3, Lysine-specific demethylase 2A; test: Inhibition of KDM2A in human MIAPaCa2 cells assessed as increase in H3K36me2 level after 48 hrs by Hoechst 33258 staining based immunofluorescence assay; type: cell-based, MIA PaCa-2
[10] = biological target: T2, Lysine-specific demethylase 5A

T2 sequence (P29375 whole entry): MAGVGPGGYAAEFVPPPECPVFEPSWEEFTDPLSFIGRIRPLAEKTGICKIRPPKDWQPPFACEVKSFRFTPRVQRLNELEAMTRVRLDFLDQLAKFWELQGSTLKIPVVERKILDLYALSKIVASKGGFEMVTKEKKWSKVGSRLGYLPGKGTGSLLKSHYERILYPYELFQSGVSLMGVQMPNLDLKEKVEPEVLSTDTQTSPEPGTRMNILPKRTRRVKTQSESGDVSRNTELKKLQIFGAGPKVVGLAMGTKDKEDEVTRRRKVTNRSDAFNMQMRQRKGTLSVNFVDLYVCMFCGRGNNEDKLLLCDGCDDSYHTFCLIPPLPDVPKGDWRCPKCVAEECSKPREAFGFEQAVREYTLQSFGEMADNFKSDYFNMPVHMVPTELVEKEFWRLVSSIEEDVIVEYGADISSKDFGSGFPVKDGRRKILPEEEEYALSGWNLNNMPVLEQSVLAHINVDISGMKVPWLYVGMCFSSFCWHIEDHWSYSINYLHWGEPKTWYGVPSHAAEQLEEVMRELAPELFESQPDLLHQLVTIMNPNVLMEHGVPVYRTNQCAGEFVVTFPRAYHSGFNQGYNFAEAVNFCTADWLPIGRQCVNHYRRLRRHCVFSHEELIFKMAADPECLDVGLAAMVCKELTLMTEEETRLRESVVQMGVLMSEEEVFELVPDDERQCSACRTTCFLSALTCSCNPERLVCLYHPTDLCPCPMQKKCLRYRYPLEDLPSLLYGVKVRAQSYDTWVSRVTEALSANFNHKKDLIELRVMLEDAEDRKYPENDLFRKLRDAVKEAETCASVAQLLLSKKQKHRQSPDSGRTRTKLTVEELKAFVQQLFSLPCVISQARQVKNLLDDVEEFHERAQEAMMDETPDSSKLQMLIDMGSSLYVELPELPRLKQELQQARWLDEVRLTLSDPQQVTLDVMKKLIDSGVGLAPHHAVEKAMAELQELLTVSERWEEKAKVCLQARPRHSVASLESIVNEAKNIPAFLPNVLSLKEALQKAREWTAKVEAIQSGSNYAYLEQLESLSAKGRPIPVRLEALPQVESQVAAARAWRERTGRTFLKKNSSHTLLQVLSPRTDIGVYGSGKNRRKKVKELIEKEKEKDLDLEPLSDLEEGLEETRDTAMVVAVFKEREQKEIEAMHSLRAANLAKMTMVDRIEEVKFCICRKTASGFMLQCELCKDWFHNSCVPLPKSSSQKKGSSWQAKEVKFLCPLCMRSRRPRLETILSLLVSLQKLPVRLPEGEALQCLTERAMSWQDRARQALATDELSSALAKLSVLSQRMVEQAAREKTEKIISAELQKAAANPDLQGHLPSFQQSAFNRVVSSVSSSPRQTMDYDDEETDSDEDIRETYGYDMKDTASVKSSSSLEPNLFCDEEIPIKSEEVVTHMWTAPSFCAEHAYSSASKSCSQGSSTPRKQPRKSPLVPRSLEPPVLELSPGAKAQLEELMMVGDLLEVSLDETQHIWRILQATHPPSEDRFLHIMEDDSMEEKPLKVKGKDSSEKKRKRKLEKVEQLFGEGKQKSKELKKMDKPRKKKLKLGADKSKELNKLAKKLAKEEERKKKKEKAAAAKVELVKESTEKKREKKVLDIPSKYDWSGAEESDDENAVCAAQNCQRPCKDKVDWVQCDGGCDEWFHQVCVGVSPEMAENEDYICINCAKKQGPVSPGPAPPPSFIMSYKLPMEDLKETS
Sequence of Lysine-specific demethylase 6B (O15054 whole entry, the tested form may be a part): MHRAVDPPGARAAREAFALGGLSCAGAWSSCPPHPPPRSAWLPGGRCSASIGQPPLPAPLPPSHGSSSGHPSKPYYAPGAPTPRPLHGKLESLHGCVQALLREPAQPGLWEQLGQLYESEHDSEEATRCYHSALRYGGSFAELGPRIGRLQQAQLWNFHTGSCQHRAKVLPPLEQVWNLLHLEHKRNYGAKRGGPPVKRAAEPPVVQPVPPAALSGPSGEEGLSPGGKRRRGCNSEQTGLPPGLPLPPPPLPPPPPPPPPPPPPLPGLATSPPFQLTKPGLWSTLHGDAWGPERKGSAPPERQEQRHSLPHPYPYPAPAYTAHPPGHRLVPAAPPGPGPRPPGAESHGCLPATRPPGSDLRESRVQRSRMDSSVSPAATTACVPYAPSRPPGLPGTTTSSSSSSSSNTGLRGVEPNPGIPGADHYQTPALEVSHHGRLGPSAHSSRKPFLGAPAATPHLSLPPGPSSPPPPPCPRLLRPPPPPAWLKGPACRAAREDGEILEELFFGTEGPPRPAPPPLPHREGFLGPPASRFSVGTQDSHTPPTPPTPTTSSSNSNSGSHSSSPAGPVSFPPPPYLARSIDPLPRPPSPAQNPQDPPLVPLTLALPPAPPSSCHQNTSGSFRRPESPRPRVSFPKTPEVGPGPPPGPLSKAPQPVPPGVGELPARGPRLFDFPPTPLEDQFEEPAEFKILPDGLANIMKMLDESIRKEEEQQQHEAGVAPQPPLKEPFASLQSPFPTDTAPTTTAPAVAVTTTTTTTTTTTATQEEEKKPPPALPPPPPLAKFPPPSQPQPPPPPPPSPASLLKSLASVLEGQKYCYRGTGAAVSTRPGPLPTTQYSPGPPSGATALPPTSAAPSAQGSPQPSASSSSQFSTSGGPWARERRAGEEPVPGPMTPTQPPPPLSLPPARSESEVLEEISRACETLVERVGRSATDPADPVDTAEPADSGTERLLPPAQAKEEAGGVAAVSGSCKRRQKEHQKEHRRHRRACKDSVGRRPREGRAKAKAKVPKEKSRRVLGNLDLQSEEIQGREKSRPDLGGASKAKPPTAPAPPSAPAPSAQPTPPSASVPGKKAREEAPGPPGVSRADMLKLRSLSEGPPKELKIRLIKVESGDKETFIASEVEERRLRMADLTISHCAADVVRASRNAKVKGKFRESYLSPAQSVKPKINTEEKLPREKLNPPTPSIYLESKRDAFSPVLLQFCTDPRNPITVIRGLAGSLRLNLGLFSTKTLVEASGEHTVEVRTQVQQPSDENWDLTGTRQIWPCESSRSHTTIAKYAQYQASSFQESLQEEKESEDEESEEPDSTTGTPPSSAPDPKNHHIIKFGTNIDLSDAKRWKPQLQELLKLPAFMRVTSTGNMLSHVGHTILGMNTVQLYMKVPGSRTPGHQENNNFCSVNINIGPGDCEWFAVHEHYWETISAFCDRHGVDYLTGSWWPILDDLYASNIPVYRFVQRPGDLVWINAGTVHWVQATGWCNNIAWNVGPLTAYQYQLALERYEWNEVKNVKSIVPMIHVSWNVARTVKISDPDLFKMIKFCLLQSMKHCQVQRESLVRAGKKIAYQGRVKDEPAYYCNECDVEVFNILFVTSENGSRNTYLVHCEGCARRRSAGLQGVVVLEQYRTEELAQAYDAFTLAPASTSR

SMILES: NNC(=O)Cc1nnn[nH]1
IC50 [1]: 46600 nM
IC50 [2]: 98000 nM
IC50 [3]: 2400 nM
Ki [4]: 1940 nM
IC50 [5]: 10400 nM

Ki [7]: 420 nM
Ki [8]: 280 nM
EC50 [9]: 280 nM
SMILES: CCCCCC[n+]1ccc(/C=C/c2ccc(N(C)C)cc2)cc1
GI50 [6]: 71 nM

IC50 [10]: 41000 nM
SMILES: CCCCc1oc2ccccc2c1C(=O)c1cc(I)c(OCCCC[N+](C)(C)C)c(I)c1
